The source of these data is patent publication US7625948B2, “Ester compound and medicinal use thereof” (Japan Tobacco Inc., priority 2002, dated 2009).

The structures appear in SMILES notation.

The nature of data set [1]: Test Example 7: metabolic stability test in human liver S9. In kind it is in vitro ADME. The settings on record: human liver S9, 2 mg protein/mL, 37° C. On the procedure: (§1) Metabolic Stability Test in Liver S9 and Small Intestine S9
(§2) Human and hamster liver S9 (final concentration: 2 mg protein/mL), and human and hamster small intestine S9 (final concentration: 2 mg protein/mL) were each suspended in 100 mM potassium phosphate buffer (pH 7.4, containing β-nicotinamide adenine dinucleotide phosphate: 1.3 mM, D-glucose-6-phosphate: 3.3 mM, magnesium chloride: 3.3 mM, glucose-6-phosphate dehydrogenase: 0.4 U/mL). The suspensions were mixed with a solution of a sample (Example 2-5) in DMSO. The solutions were incubated at 37° C. for 0, 10 and 60 minutes, and an organic solvent was added thereto. The solutions were centrifuged, and the concentration of the sample (unchanged form) in the supernatant was determined by high performance liquid chromatography/mass spectrometry (LC/MS). Based on the data obtained, remaining rate (%) was calculated according to the following equation.
(§3) Remaining rate(%)=amount of sample 10 or 60 minutes after incubation/amount of sample at zero time after incubation×100

Data set [2] in a line: Test Example 7: metabolic stability test in hamster small intestine S9. The settings on record: hamster small intestine S9, 2 mg protein/mL, 37° C. It is filed as in vitro ADME. How it is done: as §1, §2, §3
The subject of another data set is Japanese white rabbits. Kind of data set: Test Example 5: combination use test in cholesterol-loaded rabbit model (plasma cholesterol). In kind it is in vivo. Conditions: 10 mg/kg in high cholesterol diet, from grouping to the 4th day. On the procedure: Japanese white rabbits (male, 19 weeks of age, JW, purchased from Kitayama Labes Co., Ltd.) were fed previously in such a way that they were fed a high cholesterol diet (0.3% cholesterol+3% peanut oil-added RC-4, Product of Oriental Yeast Co., Ltd.) of 70 g/day under limited feeding for one day. The rabbits thus fed were used as a cholesterol-loaded rabbit model, and the grouping of such model was carried out in such a way that there might be no variation in the amount of plasma cholesterol among each group (five rabbits/group). […] The rabbits were fed 70 g of each diet every morning. Blood was collected from auricular artery 6 hours after the feeding on the 4th day of the administration, and cholesterol level in plasma was assayed. In the table, increased amount of plasma cholesterol during from the time of grouping to the 4th day was shown.

Regarding `CCOC(=O)C(COC(=O)Cc1ccc(NC(=O)c2ccccc2-c2ccc(C(F)(F)F)cc2)c(C(=O)N(C)C)c1)(C(=O)OCC)c1ccccc1` [Example 2-5], the figures for the “Remaining rate (%) after 10 min.” value in data set [1] (10 min) and in data set [2] (10 min) were 7.9% and 29.0%, respectively. The figures for the “Remaining rate (%) after 60 min.” value in data set [1] (60 min) and in data set [2] (60 min) were 4.3% and 14.1%, respectively. Besides, the “Increased amount of total cholesterol” value with Japanese white rabbits was 8.6 mg/dL.
